Legend:
[1] = molecular target: T1, MsDisA (Mycolicibacterium smegmatis, UniProt A0R564); assay: biochemical
[2] = molecular target: T1, MsDisA; details: substrate inhibition by ATP; pH 7.5; 37 °C; 5 mM MgCl2
[3] = molecular target: MsPDE (Mycolicibacterium smegmatis, UniProt A0QVM9); assay: HPLC AMP formation, substrate inhibition model; type: biochemical; details: substrate inhibition by c-di-AMP; pH 7.5; 5 mM MgCl2
Sequence of MsPDE (A0QVM9 1-340): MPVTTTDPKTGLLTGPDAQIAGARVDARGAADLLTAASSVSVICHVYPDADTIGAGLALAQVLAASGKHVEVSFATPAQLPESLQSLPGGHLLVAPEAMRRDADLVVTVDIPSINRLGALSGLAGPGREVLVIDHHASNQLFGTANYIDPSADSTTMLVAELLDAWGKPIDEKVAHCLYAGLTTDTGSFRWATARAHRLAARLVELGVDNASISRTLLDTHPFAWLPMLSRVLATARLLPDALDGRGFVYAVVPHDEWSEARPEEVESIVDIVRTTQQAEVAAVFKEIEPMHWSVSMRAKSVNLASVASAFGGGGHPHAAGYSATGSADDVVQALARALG

T1 sequence (A0R564 whole entry): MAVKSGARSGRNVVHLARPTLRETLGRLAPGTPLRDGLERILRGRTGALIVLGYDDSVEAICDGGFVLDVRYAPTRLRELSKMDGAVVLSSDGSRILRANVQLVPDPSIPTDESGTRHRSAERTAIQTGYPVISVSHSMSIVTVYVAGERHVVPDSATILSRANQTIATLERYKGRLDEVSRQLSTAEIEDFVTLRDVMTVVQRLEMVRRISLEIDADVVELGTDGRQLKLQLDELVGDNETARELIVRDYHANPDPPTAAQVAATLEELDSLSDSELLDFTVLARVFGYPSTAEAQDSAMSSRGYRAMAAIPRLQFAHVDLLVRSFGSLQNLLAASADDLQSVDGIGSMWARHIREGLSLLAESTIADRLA

Ki [3] [µM] | Structure (SMILES) | Kd [1] [µM] | Ki [2] [µM]
– | Nc1ncnc2c1ncn2[C@@H]1O[C@H](COP(=O)(O)OP(=O)(O)OP(=O)(O)O)[C@@H](O)[C@H]1O [ATP] | 2.4 | 1430
1120 | Nc1ncnc2c1ncn2[C@@H]1O[C@@H]2COP(=O)(O)O[C@H]3[C@@H](O)[C@H](n4cnc5c(N)ncnc54)O[C@@H]3COP(=O)(O)O[C@H]2[C@H]1O [c-di-AMP] | – | –
